The record followed here is ChEMBL document CHEMBL4354779, “Selective modulation of the cannabinoid type 1 (CB1) receptor as an emerging platform for the treatment of neuropathic pain” (Medchemcomm, 2019).

The target of data set [1] is T1, Cannabinoid receptor 2 (Homo sapiens, UniProt P34972). The data set is described as follows: Agonist activity at human CB2 receptor.
The nature of data set [2]: Brain to plasma permeability coefficient, Kp of compound in rat. It is filed as ADME.
Data set [3] addresses T2, Cannabinoid receptor 1 (Homo sapiens, UniProt P21554). The data set is described as follows: Agonist activity at human CB1 receptor.
The nature of data set [4]: Ratio of drug uptake in Sprague-Dawley rat brain to plasma at 1 to 8 umol/kg, sc measured after 60 mins by protein precipitation based LC-ESI-MS analysis. The format is ADME, organism-based.
Data set [5] can be described thus: Ratio of drug uptake in C57BL/6 mouse brain to plasma at 1 to 16 umol/kg, sc measured after 60 mins by protein precipitation based LC-ESI-MS analysis. It is filed as ADME, organism-based.
The subject of data set [6] is Rattus norvegicus. The data set is described as follows: Antiallodynic activity in Sprague-Dawley rat model of L5/L6 spinal nerve ligation-induced neuropathic pain at 8 umol/kg by up-and-down method relative to control. The format is functional.
Data set [7] is described as follows: Ratio of drug uptake in C57BL/6 mouse brain to plasma at 0.5 to 27 umol/kg, sc measured after 60 mins by protein precipitation based LC-ESI-MS analysis. The format is ADME, organism-based. As to conditions: 1 h.
In data set [8] the target is T1, Cannabinoid receptor 2. Description: Inhibition of 3H-CP55,940 tracer binding to human CB2 receptor expressed in Sf9 insect cell membranes after 1 hr by scintillation counting method.
Data set [9] is described as follows: Ratio of drug uptake in Sprague-Dawley rat brain to plasma at 3 umol/kg, sc measured after 60 mins by protein precipitation based LC-ESI-MS analysis. As to conditions: 1 h. It is filed as ADME, organism-based.
The target in data set [10] is T2, Cannabinoid receptor 1. Description: Inhibition of 3H-CP55,940 tracer binding to human CB1 receptor expressed in HEK293 cell membranes after 1 hr by scintillation counting method.
The subject of data set [11] is Rattus norvegicus. The data set is described as follows: Antiallodynic activity in Sprague-Dawley rat model of L5/L6 spinal nerve ligation-induced neuropathic pain at 2.5 umol/kg by up-and-down method relative to control. It is filed as functional.
Data set [12] has as its target T2, Cannabinoid receptor 1. Description: Agonist activity at human CB1 receptor expressed in HEK293 cell membranes after 1 hr by scintillation counting method.

Each structure is given as a SMILES string.

T2 sequence (P21554 whole entry): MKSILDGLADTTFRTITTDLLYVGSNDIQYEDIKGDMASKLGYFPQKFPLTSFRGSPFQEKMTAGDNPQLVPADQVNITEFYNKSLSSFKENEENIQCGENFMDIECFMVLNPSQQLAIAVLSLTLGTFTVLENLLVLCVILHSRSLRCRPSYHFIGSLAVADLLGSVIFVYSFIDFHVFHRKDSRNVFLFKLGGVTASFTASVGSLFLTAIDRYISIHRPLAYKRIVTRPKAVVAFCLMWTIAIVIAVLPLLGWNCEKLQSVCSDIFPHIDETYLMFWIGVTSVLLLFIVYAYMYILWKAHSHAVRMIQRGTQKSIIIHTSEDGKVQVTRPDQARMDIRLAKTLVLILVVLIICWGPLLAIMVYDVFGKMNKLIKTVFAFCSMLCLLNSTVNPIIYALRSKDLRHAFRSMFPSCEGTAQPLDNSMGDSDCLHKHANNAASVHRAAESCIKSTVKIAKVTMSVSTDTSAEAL
T1 sequence (P34972 whole entry): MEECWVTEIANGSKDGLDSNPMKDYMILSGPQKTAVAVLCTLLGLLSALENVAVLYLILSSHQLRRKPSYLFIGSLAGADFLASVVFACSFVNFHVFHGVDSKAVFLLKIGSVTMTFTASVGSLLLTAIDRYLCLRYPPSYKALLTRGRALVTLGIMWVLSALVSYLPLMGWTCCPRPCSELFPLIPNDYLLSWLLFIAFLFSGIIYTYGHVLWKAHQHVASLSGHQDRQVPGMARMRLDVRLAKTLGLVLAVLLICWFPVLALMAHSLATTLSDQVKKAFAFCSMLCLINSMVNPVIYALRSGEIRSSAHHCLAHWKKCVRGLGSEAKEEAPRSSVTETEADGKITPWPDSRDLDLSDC

Take `CC(C)(C)c1nc2cc(NS(C)(=O)=O)ccc2n1CC1CCC(F)(F)CC1`: the figures for the Ki in data set [1] and in data set [3] were 0.871 nM and 11.7 nM, respectively. The compound further returned a Kp in data set [2] of 0.04.
As to `Cc1c(C(=O)c2cccc3ccccc23)c2cccc3c2n1C[C@H](CN1CCOCC1)O3`, the Kp at 1 h in data set [4] stood at 2.2; in data set [5] it was 4.2. Moreover, the Activity in data set [6] came out at 100%.
For the compound `CCOc1ccc(Cc2nc3cc(N(C)S(=O)(=O)c4cccs4)ccc3n2CC2CCCCC2)nc1`, the figures for the Ratio in data set [7] and in [9] were 5% and 7%, respectively. Besides, the figures for the IC50 in data set [8] and in data set [10] were 1 nM and 3.98 nM, respectively. In [11], this compound registered an Activity of 100%. This compound also had an EC50 in [12] of 10 nM.
